Measured values: patent publication US20140243334A1, “SUBSTITUTED HYDOXAMIC ACIDS AND USES THEREOF” (Millennium Pharmaceuticals, Inc., priority 2010, published 2014)

Molecular target: T1, purified human HDAC6 (Homo sapiens, UniProt Q9UBN7)
T1 construct: purchased BPS Bioscience 5006
T1 sequence (Q9UBN7 1-1215): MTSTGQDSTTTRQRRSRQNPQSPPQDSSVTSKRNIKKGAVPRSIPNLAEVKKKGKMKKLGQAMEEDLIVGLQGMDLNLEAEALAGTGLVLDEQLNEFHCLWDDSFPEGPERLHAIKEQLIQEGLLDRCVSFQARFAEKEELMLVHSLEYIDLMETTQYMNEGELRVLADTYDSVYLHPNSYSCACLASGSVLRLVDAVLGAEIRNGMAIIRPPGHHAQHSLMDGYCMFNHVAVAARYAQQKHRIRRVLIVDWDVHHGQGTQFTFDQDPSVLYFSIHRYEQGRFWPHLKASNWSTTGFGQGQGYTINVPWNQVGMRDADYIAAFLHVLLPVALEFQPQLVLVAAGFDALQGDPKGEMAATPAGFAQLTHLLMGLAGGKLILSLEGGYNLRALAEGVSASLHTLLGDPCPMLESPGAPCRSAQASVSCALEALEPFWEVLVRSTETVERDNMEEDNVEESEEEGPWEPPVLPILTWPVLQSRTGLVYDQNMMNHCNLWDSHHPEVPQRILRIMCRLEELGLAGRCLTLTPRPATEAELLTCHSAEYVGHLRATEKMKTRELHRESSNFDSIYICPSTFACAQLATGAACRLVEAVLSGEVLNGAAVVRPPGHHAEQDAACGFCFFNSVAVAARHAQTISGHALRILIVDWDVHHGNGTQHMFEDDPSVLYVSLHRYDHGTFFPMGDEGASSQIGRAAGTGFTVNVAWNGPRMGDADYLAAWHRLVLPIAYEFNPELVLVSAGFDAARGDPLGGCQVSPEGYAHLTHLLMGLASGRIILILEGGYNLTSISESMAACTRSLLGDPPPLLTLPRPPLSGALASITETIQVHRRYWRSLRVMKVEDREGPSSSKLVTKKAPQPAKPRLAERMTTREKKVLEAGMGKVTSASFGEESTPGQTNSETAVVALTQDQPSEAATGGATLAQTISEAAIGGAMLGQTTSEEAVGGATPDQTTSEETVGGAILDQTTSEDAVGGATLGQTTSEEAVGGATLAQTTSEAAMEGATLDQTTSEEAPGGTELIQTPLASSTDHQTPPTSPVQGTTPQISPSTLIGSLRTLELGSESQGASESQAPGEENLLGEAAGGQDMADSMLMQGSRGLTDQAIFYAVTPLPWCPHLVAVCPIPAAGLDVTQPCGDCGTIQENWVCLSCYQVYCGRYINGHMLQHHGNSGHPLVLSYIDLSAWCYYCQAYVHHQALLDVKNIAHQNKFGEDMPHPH
Experiment: HDAC6 Enzyme Assay
Assay type: biochemical
Conditions: HDAC6 inhibition at a compound concentration of 0.412 μM; read-out: Percent Inhibition at 0.412 μM

| inhibition at 0.412 µM [%] | SMILES |
| --- | --- |
| 38 | COc1ccccc1Nc1ccc2c(c1)CCC(C(=O)NO)C2 (centres unmarked) [Compound I-84, N-hydroxy-6-[(2-methoxyphenyl)amino]-1,2,3,4-tetrahydronaphthalene-2-carboxamide] |
| 90 | CC(C)(C)C(=O)Nc1cccc(-c2ccc3c(c2)CC(C(=O)NO)CC3)c1 (centres unmarked) [Compound I-63, 7-{3-[(2,2-dimethylpropanoyl)amino]phenyl}-N-hydroxy-1,2,3,4-tetrahydronaphthalene-2-carboxamide] |
| 93 | CS(=O)(=O)Nc1cccc(Oc2ccc3c(c2)CC(C(=O)NO)CC3)c1 (centres unmarked) [Compound I-55, N-hydroxy-7-{3-[(methylsulfonyl)amino]phenoxy}-1,2,3,4-tetrahydronaphthalene-2-carboxamide] |
| 71 | O=C(NO)C1CCc2ccc(Nc3cccc(Cl)c3)cc2C1 (centres unmarked) [Compound I-26, 7-[(3-chlorophenyl)amino]-N-hydroxy-1,2,3,4-tetrahydronaphthalene-2-carboxamide] |
| 23 | O=C(NO)C1CCc2cc(Oc3cccc(Cl)c3)ccc2C1 (centres unmarked) [Compound I-19, 6-(3-chlorophenoxy)-N-hydroxy-1,2,3,4-tetrahydronaphthalene-2-carboxamide] |
| 72 | O=C(NO)C1CCc2ccc(NC(=O)C3CC3)cc2C1 (centres unmarked) [Compound I-22, 7-[(cyclopropylcarbonyl)amino]-N-hydroxy-1,2,3,4-tetrahydronaphthalene-2-carboxamide] |
| 65 | O=C(NO)C1CCc2ccc(NS(=O)(=O)c3ccccc3)cc2C1 (centres unmarked) [Compound I-28, N-hydroxy-7-[(phenylsulfonyl)amino]-1,2,3,4-tetrahydronaphthalene-2-carboxamide] |
| 55 | CC(C)(C#N)c1ccc(-c2ccc3c(c2)CC(C(=O)NO)CC3)cc1 (centres unmarked) [Compound I-120, 7-[4-(1-cyano-1-methylethyl)phenyl]-N-hydroxy-1,2,3,4-tetrahydronaphthalene-2-carboxamide] |
| 53 | O=C(NO)C1CCc2cc(Oc3ccncc3)ccc2C1 (centres unmarked) [Compound I-27, N-hydroxy-6-(pyridin-4-yloxy)-1,2,3,4-tetrahydronaphthalene-2-carboxamide] |
| 13 | O=C(NO)C1CCc2cccc(Oc3ccnc(NC(=O)C4CC4)c3)c2C1 (centres unmarked) [Compound I-16, 8-({2-[(cyclopropylcarbonyl)amino]pyridin-4-yl}oxy)-N-hydroxy-1,2,3,4-tetrahydronaphthalene-2-carboxamide] |
| 37 | O=C(NO)C1CCc2cc(Nc3ccccc3Cl)ccc2C1 (centres unmarked) [Compound I-83, 6-[(2-chlorophenyl)amino]-N-hydroxy-1,2,3,4-tetrahydronaphthalene-2-carboxamide] |
| 78 | COc1ccc(-c2ccc3c(c2)CC(C(=O)NO)CC3)c(C)c1 (centres unmarked) [Compound I-95, N-hydroxy-7-(4-methoxy-2-methylphenyl)-1,2,3,4-tetrahydronaphthalene-2-carboxamide] |
| 81 | COc1cccc(-c2ccc3c(c2)CC(C(=O)NO)CC3)c1 (centres unmarked) [Compound I-67, N-hydroxy-7-(3-methoxyphenyl)-1,2,3,4-tetrahydronaphthalene-2-carboxamide] |
| 73 | O=C(NO)C1CCc2ccc(Oc3ccccc3)cc2C1 (centres unmarked) [Compound I-8, N-hydroxy-7-phenoxy-1,2,3,4-tetrahydronaphthalene-2-carboxamide] |
| 78 | O=C(NO)C1CCc2ccc(-c3ccc([N+](=O)[O-])cc3)cc2C1 (centres unmarked) [Compound I-104, N-hydroxy-7-(4-nitrophenyl)-1,2,3,4-tetrahydronaphthalene-2-carboxamide] |
| 80 | O=C(NO)C1CCc2cc(-c3ccncc3)ccc2C1 (centres unmarked) [Compound I-66, N-hydroxy-6-pyridin-4-yl-1,2,3,4-tetrahydronaphthalene-2-carboxamide] |
| 82 | O=C(NO)C1CCc2ccc(-c3ccc(N4CCOCC4)nc3)cc2C1 (centres unmarked) [Compound I-99, N-hydroxy-7-(6-morpholin-4-ylpyridin-3-yl)-1,2,3,4-tetrahydronaphthalene-2-carboxamide] |
